The results in this text go back to BindingDB's records for patent US20240150293 (Les Laboratoires Servier, 2024).

T1 sequence (Q07820 whole entry C286S, looked up): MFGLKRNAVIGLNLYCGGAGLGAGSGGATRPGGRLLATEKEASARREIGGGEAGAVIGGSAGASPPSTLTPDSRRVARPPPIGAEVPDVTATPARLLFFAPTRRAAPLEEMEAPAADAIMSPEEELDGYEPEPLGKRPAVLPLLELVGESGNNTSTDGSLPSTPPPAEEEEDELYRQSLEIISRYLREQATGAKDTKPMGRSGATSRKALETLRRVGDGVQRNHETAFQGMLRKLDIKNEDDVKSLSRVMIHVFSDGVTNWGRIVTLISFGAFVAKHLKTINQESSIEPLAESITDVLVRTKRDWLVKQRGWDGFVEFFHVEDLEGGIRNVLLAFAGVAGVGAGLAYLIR

This test concerns the target T1, Induced myeloid leukemia cell differentiation protein Mcl-1 [C286S] (Homo sapiens, UniProt Q07820, C286S).
T1 construct: gene MCL1
Kind of test: Method B: Inhibition of Mcl-1 by the Fluorescence Quenching Assay. As to the method:
The addition of a compound which binds competitively to the same site as the peptide will result in an increase in the fluorescence intensity of the protein due to displacement of the fluorescence quencher. An 11-point serial dilution of each compound was prepared in DMSO, the final buffer conditions were 10 mM 4-(2-hydroxyethyl)-1-piperazineethanesulfonic acid [HEPES], 150 mM NaCl, 0.05% Tween 20, pH 7.4 and 5% DMSO. The final protein concentration in the assay was 1 nM with the peptide present at 10, 20 or 400 nM. The experiments were incubated for 2 hours at room temperature before fluorescence intensity was measured on a Biotek SynergyNeo plate reader (Excitation 620 nm, emission 680 nm). The dose response curves were plotted with XL-Fit software using a 4-Parameter Logistic Model (Sigmoidal DoseResponse Model) and the inhibitory concentrations that gave a 50% increase in fluorescence intensity was determined (IC50). The Ki values were determined from the IC50 values according to Cer et al, Nucleic Acids Res, 2009, 37 (WebServer issue): W441-W445. Inhibition constants (Ki) are determined from complete binding inhibition curves (cKi) or from estimated from incomplete binding inhibition curves (eKi) in most cases due to low activity.
As usually defined, the Ki is a measure of affinity in units of concentration, obtained from inhibition or displacement. Turning to `C[C@@H](COc1ccnc2[nH]ccc12)C[C@H]1Cc2ccccc2[C@]12CC[C@@](Nc1cccc(Cl)c1)(C(=O)O)CC2` [US20240150293, Example 626], the Ki stood at 3.91 nM.
In the case of `C[C@@H](COc1cccc2ncsc12)C[C@H]1Cc2ccccc2[C@]12CC[C@@](Nc1cccc(Cl)c1)(C(=O)O)CC2` [US20240150293, Example 625], the Ki was determined as 37.7 nM.
Regarding `CCC1CC(O)c2nccc(OC[C@H](C)C[C@H]3Cc4ccccc4[C@]34CC[C@@](Nc3cccc(Cl)c3)(C(=O)O)CC4)c21` (stereo partly drawn) [US20240150293, Example 624], the Ki was found to be 4.48 nM.
